Literature values, collected in publication PMC8330515 (Bioorganic & medicinal chemistry letters, 2020).

System: normal prostate epithelial cells
Settings: read-out: 24 h IC50 in normal prostate epithelial cells

CCN(CC)C(=S)SCc1ccc(NC(=O)CC[C@H](N)C(=O)O)cc1 [GGTDTC]
IC50: > 15 µM
